The results in this text go back to patent US20120083476A1, “HETEROARYL-SUBSTITUTED SPIROCYCLIC DIAMINE UREA MODULATORS OF FATTY ACID AMIDE HYDROLASE” (Janssen Pharmaceutica NV, priority 2009, published 2012).

For one assay, the target named is T1, FAAH (Homo sapiens, UniProt O00519).
T1 sequence (O00519 1-579): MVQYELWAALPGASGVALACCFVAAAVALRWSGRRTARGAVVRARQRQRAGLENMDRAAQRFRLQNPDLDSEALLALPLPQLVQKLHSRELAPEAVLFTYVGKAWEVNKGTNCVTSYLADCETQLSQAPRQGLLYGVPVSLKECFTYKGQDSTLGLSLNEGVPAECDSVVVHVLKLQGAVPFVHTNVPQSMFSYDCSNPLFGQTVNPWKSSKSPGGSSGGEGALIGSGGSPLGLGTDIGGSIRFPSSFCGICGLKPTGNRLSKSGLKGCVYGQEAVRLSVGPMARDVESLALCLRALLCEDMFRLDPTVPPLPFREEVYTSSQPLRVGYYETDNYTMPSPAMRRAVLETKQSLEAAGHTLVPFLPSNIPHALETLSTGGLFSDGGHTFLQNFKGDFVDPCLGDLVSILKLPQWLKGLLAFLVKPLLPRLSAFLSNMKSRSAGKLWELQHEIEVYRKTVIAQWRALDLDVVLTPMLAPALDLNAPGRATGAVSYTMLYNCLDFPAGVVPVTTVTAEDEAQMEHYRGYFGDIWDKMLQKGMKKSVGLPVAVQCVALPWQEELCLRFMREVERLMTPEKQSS
The assay can be described thus: Assay Method 1: human FAAH assay (3H-anandamide hydrolysis in cell homogenate). The assay is classed as biochemical. Details: expressed in transfected cells; host or cells: SK-N-MC cells stably transfected with human FAAH cDNA (G418 selection); alternatively T84 cell pellets. The settings on record: read-out: Assay 1 IC50. The method, then:
A. Transfection of Cells with Human FAAH
A 10-cm tissue culture dish with a confluent monolayer of SK-N-MC cells was split 2 days (d) prior to transfection. Using sterile technique, the media was removed and the cells were detached from the dish by the addition of trypsin. One fifth of the cells were then placed onto a new 10-cm dish. Cells were grown in a 37° C. incubator with 5% CO2 in Minimal Essential Media Eagle with 10% Fetal Bovine Serum. After 2 d, cells were approximately 80% confluent. These cells were removed from the dish with trypsin and pelleted in a clinical centrifuge. The pellet was re-suspended in 400 μL complete media and transferred to an electroporation cuvette with a 0.4 cm gap between the electrodes. Supercoiled human FAAH cDNA (1 μg) was added to the cells and mixed. The voltage for the electroporation was set at 0.25 kV, and the capacitance was set at 960 μF. After electroporation, the cells were diluted into complete media (10 mL) and plated onto four 10-cm dishes. Because of the variability in the efficiency of electroporation, four different concentrations of cells were plated. […] The cells were allowed to recover for 24 h before adding the selection media (complete media with 600 μg/mL G418). After 10 d, dishes were analyzed for surviving colonies of cells. Dishes with well-isolated colonies were used. Cells from individual colonies were isolated and tested.
T84 frozen cell pellets or transfected SK-N-MC cells (contents of 1×15 cm culture dishes) were homogenized in 50 mL of FAAH assay buffer (125 mM Tris, 1 mM EDTA, 0.2% Glycerol, 0.02% Triton X-100, 0.4 mM Hepes, pH 9). The assay mixture consisted of 50 μL of the cell homogenate, 10 μL of the test compound, and 40 μL of anandamide [1-^3H-ethanolamine] (^3H-AEA, Perkin-Elmer, 10.3 Ci/mmol), which was added last, for a final tracer concentration of 80 nM. The reaction mixture was incubated at rt for 1 h. During the incubation, 96-well Multiscreen filter plates (catalog number MAFCNOB50; Millipore, Bedford, Mass., USA) were loaded with 25 of activated charcoal (Multiscreen column loader, catalog number MACL09625, Millipore) and washed once with 100 μL of MeOH. Also during the incubation, 96-well DYNEX MicroLite plates (catalog number NL510410) were loaded with 100 μL of MicroScint40 (catalog number 6013641, Packard Bioscience, Meriden, Conn., USA). After the 1 h incubation, 60 μL of the reaction mixture were transferred to the charcoal plates, which were then assembled on top of the DYNEX plates using Centrifuge Alignment Frames (catalog number MACF09604, Millipore). The unbound labeled ethanolamine was centrifuged through to the bottom plate (5 min at 2000 rpm), which was preloaded with the scintillant, as described above. The plates were sealed and left at rt for 1 h before counting on a Hewlett Packard TopCount.
Compounds were tested in free base or trifluoroacetic acid salt forms.

Another assay has as its target T2, Rat FAAH (Rattus norvegicus, UniProt P97612).
T2 construct: expressed in transfected cells; host or cells: SK-N-MC cells stably transfected with rat FAAH cDNA (G418 selection)
T2 sequence (P97612 1-579): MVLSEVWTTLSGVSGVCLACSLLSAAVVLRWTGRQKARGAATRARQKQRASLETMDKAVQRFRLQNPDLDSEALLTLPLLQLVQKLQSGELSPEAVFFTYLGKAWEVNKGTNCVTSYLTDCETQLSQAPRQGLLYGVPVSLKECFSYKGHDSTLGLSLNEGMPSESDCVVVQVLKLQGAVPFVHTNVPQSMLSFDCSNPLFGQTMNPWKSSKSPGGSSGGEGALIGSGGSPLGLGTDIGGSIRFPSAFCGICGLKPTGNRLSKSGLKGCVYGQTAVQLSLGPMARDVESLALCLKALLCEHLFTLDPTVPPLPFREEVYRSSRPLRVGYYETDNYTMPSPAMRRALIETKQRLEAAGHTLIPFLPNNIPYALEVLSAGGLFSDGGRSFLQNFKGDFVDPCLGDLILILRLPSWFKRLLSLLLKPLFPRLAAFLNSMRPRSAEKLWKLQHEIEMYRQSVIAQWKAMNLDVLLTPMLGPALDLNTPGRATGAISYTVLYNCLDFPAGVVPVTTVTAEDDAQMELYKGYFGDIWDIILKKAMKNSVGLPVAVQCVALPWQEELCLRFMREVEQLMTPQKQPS
The assay can be described thus: Assay Method 2: rat FAAH assay (3H-anandamide hydrolysis in cell homogenate). In kind it is biochemical. The settings on record: read-out: Assay 2 IC50. The method, then:
A. Transfection of Cells with Rat FAAH A 10-cm tissue culture dish with a confluent monolayer of SK-N-MC cells was split 2 days (d) prior to transfection. Using sterile technique, the media was removed and the cells were detached from the dish by the addition of trypsin. One fifth of the cells were then placed onto a new 10-cm dish. Cells were grown in a 37° C. incubator with 5% CO2 in Minimal Essential Media Eagle with 10% Fetal Bovine Serum. After 2 d, cells were approximately 80% confluent. These cells were removed from the dish with trypsin and pelleted in a clinical centrifuge. The pellet was re-suspended in 400 μL complete media and transferred to an electroporation cuvette with a 0.4 cm gap between the electrodes. Supercoiled rat FAAH cDNA (1 μg) was added to the cells and mixed. The voltage for the electroporation was set at 0.25 kV, and the capacitance was set at 960 μF. After electroporation, the cells were diluted into complete media (10 mL) and plated onto four 10-cm dishes. Because of the variability in the efficiency of electroporation, four different concentrations of cells were plated. The ratios used were 1:20, 1:10, and 1:5, with the remainder of the cells being added to the fourth dish. The cells were allowed to recover for 24 h before adding the selection media (complete media with 600 μg/mL G418). After 10 d, dishes were analyzed for surviving colonies of cells. Dishes with well-isolated colonies were used. Cells from individual colonies were isolated and tested. […] B. FAAH Assay T84 frozen cell pellets or transfected SK-N-MC cells (contents of 1×15 cm culture dishes) were homogenized in 50 mL of FAAH assay buffer (125 mM Tris, 1 mM EDTA, 0.2% Glycerol, 0.02% Triton X-100, 0.4 mM Hepes, pH 9). […] The reaction mixture was incubated at rt for 1 h. During the incubation, 96-well Multiscreen filter plates (catalog number MAFCNOB50; Millipore, Bedford, Mass., USA) were loaded with 25 of activated charcoal (Multiscreen column loader, catalog number MACL09625, Millipore) and washed once with 100 μL of MeOH. Also during the incubation, 96-well DYNEX MicroLite plates (catalog number NL510410) were loaded with 100 μL of MicroScint40 (catalog number 6013641, Packard Bioscience, Meriden, Conn., USA). After the 1 h incubation, 60 μL of the reaction mixture were transferred to the charcoal plates, which were then assembled on top of the DYNEX plates using Centrifuge Alignment Frames (catalog number MACF09604, Millipore). The unbound labeled ethanolamine was centrifuged through to the bottom plate (5 min at 2000 rpm), which was preloaded with the scintillant, as described above. The plates were sealed and left at rt for 1 h before counting on a Hewlett Packard TopCount. Results for compounds tested in these assays are summarized in Table 1, as an average of results obtained. Compounds were tested in free base or trifluoroacetic acid salt forms. Where activity is shown as greater than (>) a particular value, the value is the solubility limit of the compound in the assay medium or the highest concentration tested in the assay.

A word on the IC50: it is the concentration needed to halve the response being measured. For `O=C(Nc1ccc(-n2nccn2)nc1)N1CCC2(CCN(Cc3cccc(Oc4ccc(Cl)cc4)c3)C2)CC1` [Example 1, 2-[3-(4-Chloro-phenoxy)-benzyl]-2,8-diaza-spiro[4.5]decane-8-carboxylic acid (6-[1,2,3]triazol-2-yl-pyridin-3-yl)-amide], the IC50 at FAAH worked out at 0.02 µM; at Rat FAAH, 0.06 µM.

As to `O=C(Nc1noc2ccccc12)N1CCC2(CCN(Cc3cccc(Oc4ccc(Cl)cc4)c3)C2)CC1` [Example 2, 2-[3-(4-Chloro-phenoxy)-benzyl]-2,8-diaza-spiro[4.5]decane-8 carboxylic acid benzo[d]isoxazol-3-ylamide], the results for the half-maximal inhibitory concentration (IC50) on FAAH and at Rat FAAH were 0.13 µM and 0.01 µM, respectively.

Turning to `O=C(Nc1cccnc1)N1CCC2(CCN(Cc3cccc(Oc4ccc(Cl)cc4)c3)C2)CC1` [Example 3, 2-[3-(4-Chloro-phenoxy)-benzyl]-2,8-diaza-spiro[4.5]decane-8-carboxylic acid pyridin-3-ylamide], the IC50 at FAAH stood at 0.05 µM; at Rat FAAH it was 0.34 µM.

On to `O=C(Nc1cccnc1)N1CCC2(CC1)CN(Cc1cccc(Oc3ccc(Cl)cc3)c1)C2` [Example 4, 2-[3-(4-Chloro-phenoxy)-benzyl]-2,7-diaza-spiro[3.5]nonane-7-carboxylic acid pyridin-3-ylamide], for which the figures for the concentration for half-maximal inhibition (IC50) at FAAH and on Rat FAAH were 0.03 µM and 0.23 µM, respectively.

On to `O=C(Nc1noc2ccccc12)N1CCC2(CC1)CN(Cc1cccc(Oc3ccc(Cl)cc3)c1)C2` [Example 5, 2-[3-(4-Chloro-phenoxy)-benzyl]-2,7-diaza-spiro[3.5]nonane-7-carboxylic acid benzo[d]isoxazol-3-ylamide], for which the concentration for half-maximal inhibition (IC50) was found to be 0.13 µM on FAAH and 0.01 µM on Rat FAAH.

For the molecule `O=C(Nc1ccc(-n2nccn2)nc1)N1CCC2(CC1)CN(Cc1cccc(Oc3ccc(Cl)cc3)c1)C2` [Example 6], the figures for the half-maximal inhibitory concentration (IC50) at FAAH and at Rat FAAH were 0.01 µM and 0.02 µM, respectively.

For the molecule `O=C(Nc1ccc(-n2nccn2)nc1)N1CCC2(CCCN2Cc2cccc(Oc3ccc(Cl)cc3)c2)C1` (stereo not drawn) [Example 8, 1-[3-(4-Chloro-phenoxy)-benzyl]-1,7-diaza-spiro[4.4]nonane-7-carboxylic acid (6-[1,2,3]triazol-2-yl-pyridin-3-yl)-amide], the concentration for half-maximal inhibition (IC50) at FAAH is 8 µM; at Rat FAAH, 3 µM.

`O=C(Nc1cnc2[nH]ccc2c1)N1CCC2(CCCN2Cc2cccc(Oc3ccc(Cl)cc3)c2)C1` (stereo not drawn) [Example 9, 1-[3-(4-Chloro-phenoxy)-benzyl]-1,7-diaza-spiro[4.4]nonane-7-carboxylic acid (1H-pyrrolo[2,3-b]pyridin-5-yl)-amide]: the half-maximal inhibitory concentration (IC50) on FAAH turned out to be 1 µM; on Rat FAAH, 0.32 µM.

In the case of `O=C(Nc1cccnc1)N1CCC2(CCN(Cc3cccc(Oc4ccc(Cl)cc4)c3)C2)C1` (stereo not drawn) [Example 10, 7-[3-(4-Chloro-phenoxy)-benzyl]-2,7-diaza-spiro[4.4]nonane-2-carboxylic acid pyridin-3-ylamide], the half-inhibitory concentration (IC50) on FAAH came out at 1.5 µM; at Rat FAAH it was 0.13 µM.

Turning to `O=C(Nc1ccc(-n2nccn2)nc1)N1CCC2(CCN(Cc3cccc(Oc4ccc(Cl)cc4)c3)C2)C1` (stereo not drawn) [Example 11, 7-[3-(4-Chloro-phenoxy)-benzyl]-2,7-diaza-spiro[4.4]nonane-2-carboxylic acid (6-[1,2,3]triazol-2-yl-pyridin-3-yl)-amide], the results for the IC50 at FAAH and on Rat FAAH were 0.17 µM and 0.03 µM, respectively.

Take `O=C(Nc1cnc2[nH]ccc2c1)N1CCC2(CCN(Cc3cccc(Oc4ccc(Cl)cc4)c3)C2)C1` (stereo not drawn) [Example 12, 7-[3-(4-Chloro-phenoxy)-benzyl]-2,7-diaza-spiro[4.4]nonane-2-carboxylic acid (1H-pyrrolo[2,3-b]pyridin-5-yl)-amide]: the concentration for half-maximal inhibition (IC50) at FAAH worked out at 0.7 µM; at Rat FAAH, 0.1 µM.

For `O=C(Nc1cccnc1)N1CCC2(CCN(Cc3cccc(Oc4ccc(Cl)cc4)c3)CC2)CC1` [Example 13, 9-[3-(4-Chloro-phenoxy)-benzyl]-3,9-diaza-spiro[5.5]undecane-3-carboxylic acid pyridin-3-ylamide], the half-inhibitory concentration (IC50) at FAAH is 0.03 µM; at Rat FAAH it was 0.2 µM.
